The source of these data is US20250197368A1 (priority 2020, published 2025).

Assay [1] concerns human α2β3γ2 GABAARs. Description: In vitro electrophysiological recording assay (automated patch-clamp), α2-GABAAR relative efficacy. Conditions: % efficacy normalised to diazepam; GABA EC10-20; concentration generally >= 100 times Ki. It counts as cell-based. The method, then: The efficacy of modulators was evaluated using the automated patch-clamp platforms QPatch16 (Sophion, Copenhagen, Denmark) or SyncroPatch 384PE (Nanion, Germany).
For QPatch electrophysiology testing L(tk^−) cells stably expressing human α1β3γ2, α2β3γ2, α3β3γ2, α5β3γ2 GABAARs were used. HEK293 cells stably expressing human α1β3γ2L, α2β3γ2L, α3β3γ2L and α5β3γ2L GABAARs were used for the SyncroPatch 384PE experiments.
All experiments were carried out at room temperature (20-22° C.) using a standard whole cell procedure and physiological solutions. Gigaseals were formed upon execution of a combined suction/voltage protocol with subsequent increased suction leading to the whole-cell configuration.
The currents recorded were acquired at either 1 KHz or 2 KHz and filtered using a Bessel filter. Whole-cell currents were measured at a holding potential of-65 mV (QPatch) or −80 mV (SyncroPatch).
For QPatch experiments, the extracellular solution contained of: 145 mM NaCl, 4 mM KCl, 1 mM MgCl2, 2 mM CaCl2), 10 mM HEPES, 10 mM D-glucose (pH 7.4), and the intracellular solution consisted of: 96 mM KCl, 28 mM CsCl, 25 mM KOH, 4.3 mM CaCl2), 1.4 mM MgCl2, 10 mM EGTA, 10 mM HEPES, 3 mM MgATP (pH 7.2). The osmolarities of the extracellular and intracellular solutions were 305 and 295 mOsm respectively.
For SyncroPatch experiments, the extracellular recording solution contained: 140 mM NaCl, 4 mM KCl, 2 mM CaCl2), 1 mM MgCl2, 10 mM HEPES, 5 mM glucose (pH 7.4 with NaOH and osmolarity of c. 300-310 mOsm). The intracellular recording solution consisted of: 90 mM KCl, 50 mM KF, 1.5 mM MgCl2, 11.1 mM EGTA and 10 mM HEPES (pH 7.2 with KOH and osmolarity of c. 300 mOsm). 2 mM of NaATP was added to the intracellular solution on the day of testing.
The effects of modulators were evaluated in the presence of a submaximal GABA concentration, giving typically less than 30% activation of the response elicited by a saturating GABA concentration. To check and ensure baseline current stability before compound addition, two to five consecutive applications of GABA EC10-20 separated by wash steps were performed before compound addition. The test compound was applied 1 min at least prior to co-application with GABA EC10-20. Following a further wash step, a saturating concentration of GABA was applied at the end of each recording, allowing the accurate evaluation for each cell of the percentage baseline activation elicited by the submaximal GABA applied.
The compounds were first dissolved in DMSO as a 10 mM stock and then further diluted to the testing concentrations so that the final DMSO concentration in the extracellular recording solution was 0.1% (QPatch) or 0.2% (SyncroPatch).
The % efficacy of modulators was determined from the GABA elicited currents recorded in the presence and absence of the test compound, using the formula:
[((compound peak current−leak)−(GABA peak current-leak))/(GABA peak current−leak)]*100,
where ‘leak’ is the leak baseline current at the holding potential, ‘compound peak current’ is the current elicited by co-application of compound and GABA, and ‘GABA peak current’ is the current elicited by GABA alone at the last GABA application before compound addition. The results were presented as ‘relative efficacy’ for each compound generally at a concentration equal or higher than 100 times their determined Ki. The relative efficacy of a compound was calculated by normalising its % efficacy to the corresponding % efficacy of diazepam that was separately determined.
On the technique in general: The patch-clamp technique gives a direct electrical read-out from membranes.

For assay [2], the target named is human α2β3γ2 GABAARs (benzodiazepine site) (Homo sapiens (Human), UniProt P18507+P47869). Description: In vitro radioligand binding assay ([3H]Ro15-1788 displacement), α2-GABAAR Ki. The method, then: The affinity (Ki) of compounds for the benzodiazepine site of human recombinant GABAARs was measured by their ability to inhibit the binding of the selective benzodiazepine antagonist [^3H]Ro15-1788 ([^3H] flumazenil).
Chain of human α2β3γ2 GABAARs (benzodiazepine site) (P47869 29-451): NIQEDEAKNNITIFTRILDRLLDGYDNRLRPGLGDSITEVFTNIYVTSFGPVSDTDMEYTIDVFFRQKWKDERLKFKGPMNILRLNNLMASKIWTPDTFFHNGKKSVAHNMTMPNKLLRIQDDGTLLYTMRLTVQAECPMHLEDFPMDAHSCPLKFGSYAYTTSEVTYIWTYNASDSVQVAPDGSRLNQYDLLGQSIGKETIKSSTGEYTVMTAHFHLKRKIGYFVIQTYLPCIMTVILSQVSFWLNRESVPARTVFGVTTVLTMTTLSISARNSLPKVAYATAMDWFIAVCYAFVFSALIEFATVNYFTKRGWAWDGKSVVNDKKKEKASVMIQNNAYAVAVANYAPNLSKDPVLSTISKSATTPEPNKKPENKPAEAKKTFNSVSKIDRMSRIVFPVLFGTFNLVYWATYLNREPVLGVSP
Chain of human α2β3γ2 GABAARs (benzodiazepine site) (P28472 26-473 partner): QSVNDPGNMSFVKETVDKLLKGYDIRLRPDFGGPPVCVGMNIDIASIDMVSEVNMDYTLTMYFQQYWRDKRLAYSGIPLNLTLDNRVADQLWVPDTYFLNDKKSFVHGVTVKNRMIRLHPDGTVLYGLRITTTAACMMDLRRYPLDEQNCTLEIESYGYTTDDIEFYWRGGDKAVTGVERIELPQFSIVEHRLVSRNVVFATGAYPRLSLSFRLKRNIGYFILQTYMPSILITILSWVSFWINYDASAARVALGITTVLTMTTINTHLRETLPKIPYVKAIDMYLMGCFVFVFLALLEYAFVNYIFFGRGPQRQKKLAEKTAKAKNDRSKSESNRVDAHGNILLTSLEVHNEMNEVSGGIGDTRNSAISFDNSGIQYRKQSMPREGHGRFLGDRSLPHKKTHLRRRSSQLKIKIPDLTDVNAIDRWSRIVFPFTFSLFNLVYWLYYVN
Chain of human α2β3γ2 GABAARs (benzodiazepine site) (P18507 40-475): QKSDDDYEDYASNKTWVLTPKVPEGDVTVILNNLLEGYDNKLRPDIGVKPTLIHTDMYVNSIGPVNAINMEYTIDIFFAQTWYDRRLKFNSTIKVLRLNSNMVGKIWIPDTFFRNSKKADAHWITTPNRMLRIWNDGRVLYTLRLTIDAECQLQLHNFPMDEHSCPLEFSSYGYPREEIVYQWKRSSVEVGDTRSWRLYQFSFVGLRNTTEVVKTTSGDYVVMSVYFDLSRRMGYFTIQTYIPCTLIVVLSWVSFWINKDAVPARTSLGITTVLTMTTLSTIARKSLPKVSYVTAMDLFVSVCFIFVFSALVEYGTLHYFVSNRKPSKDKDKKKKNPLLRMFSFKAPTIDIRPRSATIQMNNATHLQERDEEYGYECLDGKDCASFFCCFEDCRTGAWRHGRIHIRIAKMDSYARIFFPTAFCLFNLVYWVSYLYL
Mouse L(tk^−) cells stably expressing human α1β3γ2, α2β3γ2, α3β3γ2, α5β3γ2 GABAARs were generated by transfection of the individual subunits in the dexamethasone-inducible expression vector pMSGneo in mouse L(tk^−) cells (Hadingham et al., 1993, Mol. Pharmacol. 43:970-975 and 1993, Mol. Pharmacol. 44:1211-1218).
L(tk^−) cells stably expressing human α1β3γ2, α2β3γ2, α3β3γ2, α5β3γ2 GABAARs were maintained in DMEM F12 medium supplemented with 10% Foetal Bovine Serum, 1% Penicillin/Streptomycin and 1 mg/mL Geneticin G418 in an incubator at 37° C. with a humidified atmosphere with 5% CO2. Dexamethasone was added to the culture medium to induce GABAAR expression.
L(tk−) cells were harvested and membranes were prepared for each receptor combination in either TE buffer (10 mM Tris·CI/0.1 mM EDTA, pH 7.5) or phosphate buffer (K2PO4 10 mM, pH 7.0) (Hadingham et al. (1992) Proc. Natl. Acad. Sci. USA; 89 (14): 6378-82). Protein concentration, receptor expression and the Kd of [^3H]Ro15-1788 were determined before Ki value of the compounds were evaluated. For Kd evaluation, saturation binding curves were obtained by incubating membrane with various concentrations of [^3H]Ro15-1788 (82.5 Ci/mM), with nonspecific binding measured in the presence of 1-3 μM TP003.
For Ki evaluation, cell membranes were incubated with 4 nM [^3H]Ro15-1788 along with a range of concentrations of test compound. Nonspecific binding was determined using 1-3 μM TP003. All incubations were performed for 1 hour at 4° C. in assay buffer. The total assay volume was 0.5 mL, containing 40 μg/well α1β3γ2, 30 μg/well α2β3γ2, 40 μg/well α3β3γ2 and 30 μg/well for α5β3γ2 of membrane protein. Incubations were terminated by filtration and washing with ice cold Tris-HCl buffer (50 mM, pH=7.4) over Whatman GF/B filters and the radioactivity of the filters was measured using liquid scintillation counting.
The % inhibition of [^3H]Ro15-1788 binding was plotted as a function of compound concentration and the IC50 calculated. From the IC50, the affinity (Ki) was calculated using the method of Cheng and Prusoff using the Kd values obtained for [^3H]Ro15-1788.

For orientation: Ki means a dissociation constant, usually derived from enzyme kinetics or from competition with a known ligand. For `CCCNC(=O)c1c(N)c2cccc(-c3nc(OCCOC)ncc3F)c2[nH]c1=O` [Example 43, 4-Amino-8-(5-fluoro-2-(2-methoxyethoxy)pyrimidin-4-yl)-2-oxo-N-propyl-1,2-dihydroquinoline-3-carboxamide], the “α2-GABAAR Relative Efficacy (vs. Diazepam)” value (shortened to “α2-GABAAR Relative Efficacy”) in assay [1] is reported as 0.14. In addition, the Ki in assay [2] worked out at 1.47 nM.

Turning to `CCCNC(=O)c1c(N)c2cccc(-c3cncnc3OC)c2[nH]c1=O` [Example 44, 4-Amino-8-(4-methoxypyrimidin-5-yl)-2-oxo-N-propyl-1H-quinoline-3-carboxamide], in assay [1], the “α2-GABAAR Relative Efficacy” value is recorded as 0.30. The Ki in assay [2] worked out at 18.6 nM.

With `CCCNC(=O)c1c(N)c2cccc(-c3cnccn3)c2[nH]c1=O` [Example 45, 4-Amino-2-oxo-N-propyl-8-(pyrazin-2-yl)-1,2-dihydroquinoline-3-carboxamide], in assay [1], the “α2-GABAAR Relative Efficacy” value is 0.11. Further, in assay [2], the Ki is 5.04 nM.

For `CCCNC(=O)c1c(N)c2cccc(-c3cncc(C)n3)c2[nH]c1=O` [Example 46, 4-Amino-8-(6-methylpyrazin-2-yl)-2-oxo-N-propyl-1,2-dihydroquinoline-3-carboxamide], in assay [1], the “α2-GABAAR Relative Efficacy” value was 0.02. Further, the Ki in assay [2] was determined as 2.37 nM.

For the compound `CCCNC(=O)c1c(N)c2cccc(-c3cncc(OC)n3)c2[nH]c1=O` [Example 47, 4-Amino-8-(6-methoxypyrazin-2-yl)-2-oxo-N-propyl-1,2-dihydroquinoline-3-carboxamide], the “α2-GABAAR Relative Efficacy” value in assay [1] came out at 0.08. Besides, in assay [2], the Ki was 0.23 nM.

As for `CCCNC(=O)c1c(N)c2cccc(-c3cccc(OC)c3)c2[nH]c1=O` [Example 48, 4-Amino-8-(3-methoxyphenyl)-2-oxo-N-propyl-1H-quinoline-3-carboxamide], in assay [1], the “α2-GABAAR Relative Efficacy” value was found to be 0.39. Further, the Ki in assay [2] worked out at 1.84 nM.

Consider `CCCNC(=O)c1c(N)c2cccc(-c3cc(OC)ccc3F)c2[nH]c1=O` [Example 49, 4-Amino-8-(2-fluoro-5-methoxy-phenyl)-2-oxo-N-propyl-1H-quinoline-3-carboxamide], for which the “α2-GABAAR Relative Efficacy” value in assay [1] turned out to be 0.26. In addition, in assay [2], the Ki came to 0.43 nM.

Take `CCCNC(=O)c1c(N)c2cccc(-c3c(F)cccc3F)c2[nH]c1=O` [Example 50, 4-Amino-8-(2,6-difluorophenyl)-2-oxo-N-propyl-1H-quinoline-3-carboxamide]: the “α2-GABAAR Relative Efficacy” value in assay [1] came to 0.34. In assay [2], the Ki worked out at 0.21 nM.

On to `CCCNC(=O)c1c(N)c2cccc(-c3c(C)noc3C)c2[nH]c1=O` [Example 54, 4-Amino-8-(3,5-dimethylisoxazol-4-yl)-2-oxo-N-propyl-1H-quinoline-3-carboxamide], for which the “α2-GABAAR Relative Efficacy” value in assay [1] is given as 0.07. For the same compound, in assay [2], the Ki stood at 20 nM.

On to `CCNC(=O)c1c(N)c2cccc(-c3cnccc3OC)c2[nH]c1=O` [Example 56, 4-Amino-N-ethyl-8-(4-methoxy-3-pyridyl)-2-oxo-1H-quinoline-3-carboxamide], for which the “α2-GABAAR Relative Efficacy” value in assay [1] worked out at 0.34. Also, the Ki in assay [2] turned out to be 6.62 nM.

With `COc1ccncc1-c1cccc2c(N)c(C(=O)NCC3CC3)c(=O)[nH]c12` [Example 59, 4-Amino-N-(cyclopropylmethyl)-8-(4-methoxy-3-pyridyl)-2-oxo-1H-quinoline-3-carboxamide], the “α2-GABAAR Relative Efficacy” value in assay [1] came out at 0.27. Also, the Ki in assay [2] worked out at 2.01 nM.

With `COc1ccncc1-c1cccc2c(N)c(C(=O)NCC(C)C)c(=O)[nH]c12` [Example 60, 4-Amino-N-isobutyl-8-(4-methoxy-3-pyridyl)-2-oxo-1H-quinoline-3-carboxamide], the “α2-GABAAR Relative Efficacy” value in assay [1] turned out to be 0.65. In addition, the Ki in assay [2] came to 15.4 nM.

Take `COCCNC(=O)c1c(N)c2cccc(-c3cnccc3OC)c2[nH]c1=O` [Example 63, 4-Amino-N-(2-methoxyethyl)-8-(4-methoxy-3-pyridyl)-2-oxo-1H-quinoline-3-carboxamide]: the “α2-GABAAR Relative Efficacy” value in assay [1] came to 0.65. Also, the Ki in assay [2] amounted to 24.5 nM.

Turning to `COc1ccncc1-c1cccc2c(N)c(C(=O)NCCO)c(=O)[nH]c12` [Example 64, 4-Amino-N-(2-hydroxyethyl)-8-(4-methoxy-3-pyridyl)-2-oxo-1H-quinoline-3-carboxamide], the “α2-GABAAR Relative Efficacy” value in assay [1] worked out at 0.34. Further, the Ki in assay [2] came to 84.6 nM.

Take `COc1ccncc1-c1cccc2c(N)c(C(=O)NCCCF)c(=O)[nH]c12` [Example 67, 4-Amino-N-(3-fluoropropyl)-8-(4-methoxy-3-pyridyl)-2-oxo-1H-quinoline-3-carboxamide]: the “α2-GABAAR Relative Efficacy” value in assay [1] is on record as 0.54. For the same compound, the Ki in assay [2] worked out at 3.74 nM.

On to `COc1ccncc1-c1cccc2c(N)c(C(=O)NCCC(F)F)c(=O)[nH]c12` [Example 68, 4-Amino-N-(3,3-difluoropropyl)-8-(4-methoxy-3-pyridyl)-2-oxo-1H-quinoline-3-carboxamide], for which the “α2-GABAAR Relative Efficacy” value in assay [1] was found to be 0.54. In assay [2], the Ki came out at 4.88 nM.

In the case of `Cc1nn(C)cc1-c1cccc2c(N)c(C(=O)NCCC(F)(F)F)c(=O)[nH]c12` [Example 73, 4-Amino-8-(1,3-dimethylpyrazol-4-yl)-2-oxo-N-(3,3,3-trifluoropropyl)-1H-quinoline-3-carboxamide], in assay [1], the “α2-GABAAR Relative Efficacy” value amounted to 0.48. Further, the Ki in assay [2] is 3.08 nM.

Regarding `CCCNC(=O)c1c(N)c2cccc(-c3cccnc3OC)c2n(C)c1=O` [Example 76, 4-Amino-8-(2-methoxy-3-pyridyl)-1-methyl-2-oxo-N-propyl-quinoline-3-carboxamide], the “α2-GABAAR Relative Efficacy” value in assay [1] is recorded as 0.42. Further, the Ki in assay [2] was 6.23 nM.

Consider `COc1ccncc1-c1cccc2c(N)c(C(=O)NCC3CC3)c(=O)n(C)c12` [Example 78, 4-Amino-N-(cyclopropylmethyl)-8-(4-methoxy-3-pyridyl)-1-methyl-2-oxo-quinoline-3-carboxamide], for which the “α2-GABAAR Relative Efficacy” value in assay [1] is on record as 0.70. Moreover, in assay [2], the Ki worked out at 2.11 nM.
